According to patent US20230255943A1, “MMP-9 AND MMP-12 INHIBITION FOR TREATING SPINAL CORD INJURY OR RELATED INJURY TO NEUROLOGICAL TISSUE” (The University of Birmingham, priority 2020, published 2023):
“Also recorded” adds a separate entry of the source. Structures can show the parent of a compound that is named as a salt.

Assays:
[1] = system: mice with DC crush injury; experiment: Spinal cord water content (oedema) after DC crush injury in mice; assay type: in vivo, mouse; settings: for spinal cord water content, comparison of MMP inhibitors (FIG. 4) / spinal cord water content: 3 days after DC injury; for spinal cord water content, comparison of MMP inhibitors (FIG. 4): doses and routes of Table 1, vs DC+vehicle
Description: For oral delivery of AZD1236, n=6 adult male C57BL6 mice/group (Charles River, Margate, UK) were randomly allocated to either: (1), Sham (control; partial laminectomy but no DC crush injury); (2), DC crush injury+vehicle (partial laminectomy followed by DC crush injury and injection of vehicle); (3), DC crush injury+100 mg/kg AZD1236; (4), DC crush injury+200 mg/kg AZD1236; and (5), DC crush injury+300 mg/kg AZD1236. For intrathecal (it) delivery of AZD1236, adult male C57BL6 mice (25-30 g) (Charles River, Margate, UK) were randomly allocated to either: (1), Sham (control; partial laminectomy but no DC crush injury); (2), DC crush injury+vehicle (partial laminectomy followed by DC crush injury and injection of vehicle); (3), DC crush injury+2.5 mg/kg AZD1236; (4), DC crush injury+5 mg/kg AZD1236; and (5), DC crush injury+10 mg/kg AZD1236. For intrathecal delivery an indwelling atlanto-occipital intrathecal catheter was inserted into the intrathecal space, as described previously (F. A. Oladosu, B. P. Ciszek, S. C. O'Buckley, A. G. Nackley, Novel intrathecal and subcutaneous catheter delivery systems in the mouse. J Neurosci Methods 264, 119-128 (2016)). Briefly, with mice in the sternal recumbency a small incision was made at the nape of the neck followed by detachment of the muscles on either side of the external occipital crest to expose the A-O membrane. The membrane was incised and a 6 cm Alzet mouse intrathecal catheter (Alzet, Cupertino, Calif., USA) and polyurethane segments were gently guided 2.5 cm into the intrathecal space. The catheter was secured using 4-0 silk sutures (Oasis Medical, IL) and the exposed end of the catheter was sealed off with a stainless-steel plug and affixed to the upper back. Animals were injected immediately with vehicle or AZD1236 followed by a 10 μl PBS catheter flush. Injections were repeated every twice daily for the first 3 days after injury and drugs and vehicle reagents were delivered over 1 min time period using a Hamilton microlitre syringe (Hamilton Co, USA). Where specified intact animals with no surgical procedures were also used. All lesions were administered under 5% isofluorane induced inhalation anaesthesia, with 1.51/min O2. Pre- and post-injury analgesia was also provided.
DC crush injury was administered bilaterally at the T8 vertebral level as described previously (S. Surey, M. Berry, A. Logan, R. Bicknell, Z. Ahmed, Differential cavitation, angiogenesis and wound-healing responses in injured mouse and rat spinal cords. Neuroscience 275, 62-80 (2014); M. L. Read, S. Mir, R. Spice, R. J. Seabright, E. L. Suggate, Z. Ahmed, M. Berry, A. Logan, Profiling RNA interference (RNAi)-mediated toxicity in neural cultures for effective short interfering RNA design. J Gene Med 11, 523-534 (2009)). Briefly, calibrated watchmaker's forceps were separated by 0.5 mm and inserted through the dorsal cord meninges to a depth of 0.45 mm in mice and separated by 1 mm and inserted through the dorsal cord meninges to a depth of 1.0 mm in rats, and the DC were crushed for 3 seconds. AZD1236 or vehicle was administered twice daily by oral gavage or intrathecally, either immediately for the first 3 days or 24 hours after injury and treating twice daily until day 4 (i.e. 3 days of AZD1236 dosing). All experiments were performed with n=6 mice/group and repeated on at least 2-3 independent occasions (total=12-18 animals/group/test).
The lesion site+3 mm either side for mice and the lesion site+5 mm either side for the rat DC model were dissected out and the water content of the spinal cord (as a measure of oedema) was determined at 3 days after DC and CC SCI, as described previously (S. Li, C. H. Tator, Effects of MK801 on evoked potentials, spinal cord blood flow and cord edema in acute spinal cord injury in rats. Spinal Cord 37, 820-832 (1999)). Spinal cords containing the lesion site were weighed on aluminium foil, dried at 105° C. for 24 hr, and re-weighed. […]

[2] = system: mice with DC crush injury; assay type: in vivo, mouse; settings: for number of CTB+ DC axons regenerating, comparison with other MMP inhibitors (FIG. 11): mouse, in vivo
[3] = system: LPS-stimulated primary microglia; experiment: LPS-induced cytokine production by primary microglia (ELISA); assay type: cell-based, mouse; settings: LPS 10 ng/ml, 24 h
Description: Primary mouse microglia from 6-8-week-old C57BL/6 mouse brains were prepared according to a previously described protocol (Moussaud S, Draheim H J. A new method to isolate microglia from adult mice and culture them for an extended period of time. J Neurosci Methods 2010; 187(2): 243-53). Briefly, the meninges of brains were dissected out, finely minced enzymatically digested using 20 units/ml Papain (all from Sigma). After incubation for 90 min at 37° C., the suspension was centrifuged at 200 g for 7 min and the pellet resuspended in 0.5 mg/ml DNase I (Roche, Manheim, Germany) and triturated with fire-polished Pasteur pipettes of decreasing diameters. The homogenate was then filtered through a 70 μm cell strainer (Beckton Dickinson, Watford, UK), and centrifuged through a Percoll (GE Healthcare, Amersham, UK) gradient. Finally, the cell suspension was resuspended in DMEM/F12 medium supplemented with 10% FBS (all from Invitrogen) and 5 ng/ml of granulocyte colony and macrophage stimulating factor (GM-CSF) (#415-ML, R&D Systems. Watford, UK), plated out in T75 cell culture flasks (Beckton Dickinson) precoated with poly-L-lysine, and maintained at 37° C. and 5% CO2 for approximately 2 weeks. When the cells become confluent, microglia detach and migrate to the medium-air interface, floating and proliferating. The supernatant of the flask was then collected without prior shaking to remove the microglia growing on a mixed glial culture base and centrifuged at 200 g for 7 min. The purity of microglia was determined from each flask by immunocytochemistry for CD11b and confirmed as 95% pure. Before each experiment, microglia were cultured in DMEM/F12 without GM-CSF for at least 3 d.
Microglia were used for all experiments with an in vitro age between 15-20 d in vitro (DIV) and were seeded on glass coverslips in 24-well plates at a density of 3×10^4 cells/well. Microglia were exposed to serum-free media for 24 h before exposing the cells to different concentrations of lipopolyscaccharide (LPS) in preliminary experiments to determine optimal concentrations required to maximally activate our primary microglial cultures. This was determined as 10 ng/ml. For the microglial activation assay, cells were exposed to serum-free medium for 24 h before being exposed to LPS, with or without different concentrations of AZD1236, GM6001, SD2590 and MMP-9 Inhibitor I (all used at 10-500 ng/ml) for a further 24 h. Cell culture supernatant was then collected, centrifuged to remove cell debris and subjected to ELISA to determine the concentrations of TNF-α, IL-1β and IL-6. Experiments were performed in triplicate wells and repeated on 3 independent occasions (n=9 wells/treatment).
TNF-α (#MTA00B), IL-1β (#MLBOOC) and IL-6 (#M6000B) were determined using commercially available kits from R&D Systems, following the manufacturer's instructions.

Compound | spinal cord water content, comparison of MMP inhibitors (FIG. 4) [1] | number of CTB+ DC axons regenerating, comparison with other MMP inhibitors (FIG. 11) [2] | TNF-α, IL-1β and IL-6 production by LPS-activated microglia ([3]; 10-500 ng/ml) | intrathecal dose required for same reduction of water content, as fraction of oral dose ([1]; intrathecal vs oral) | spinal cord water content ([1]; intrathecal, 5.0 and 10.0 mg/kg) | SCI-induced water content, 24-h delayed treatment ([1]; optimal doses, 24 h delay vs immediate) | spinal cord water content ([1]; oral, twice daily, 200 mg/kg and 300 mg/kg) | CTB+ fibres regenerating through the lesion site, 24 h delayed treatment ([2]; 24 h delay vs immediate) | extension of CTB labelled axons from the lesion centre ([2]; oral) | CTB+ labeling intensity (percentage of CTB labelled axons) ([2]; oral, vs DC+Vehicle) | TNF-α, IL-1β and IL-6 production by LPS-activated microglia ([3]; 100 ng/ml) | TNF-α, IL-1β and IL-6 production by LPS-activated microglia ([3]; 500 ng/ml)
CCN(CC)Cc1cc(C)c(N(Cc2ccccc2)S(=O)(=O)c2ccc(OC)cc2)c(C(=O)NO)c1 [MMP-9 Inhibitor I, reference compound] | significantly reduced spinal cord water content | only a marginal effect on axon regeneration | marginal effects | – | – | – | – | – | – | – | – | –
COCCN1CCC(C(=O)NO)(S(=O)(=O)c2ccc(Oc3ccc(OC(F)(F)F)cc3)cc2)CC1 [SD2590, N-Hydroxy-1-(2-methoxyethyl)-4-[4-[4-(trifluoromethoxy)phenoxy]phenyl]sulfonyl]-4-piperidinecarboxamide hydrochloride, reference compound] | significantly reduced spinal cord water content | only a marginal effect on axon regeneration | marginal effects | – | – | – | – | – | – | – | – | –
CNC(=O)[C@H](Cc1c[nH]c2ccccc12)NC(=O)[C@@H](CC(=O)NO)CC(C)C [GM6001, (2R)—N^4-Hydroxy-N^1-[(1S)-1-(1H-indol-3-ylmethyl)-2-(methylamino)-2-oxoethyl]-2-(2-methylpropyl)butanediamide, reference compound] | significantly reduced spinal cord water content | only a marginal effect on axon regeneration | marginal effects | – | – | – | – | – | – | – | – | –
C[C@]1(CS(=O)(=O)N2CC=C(C#Cc3cnc(C4CC4)nc3)CC2)NC(=O)NC1=O [AZD1236] | far more effective than any of these compounds; also recorded: almost completely ablating DC injury-induced rises | far superior at promoting DC axon regeneration | dose-dependent decrease | 1/40 | reduced to sham-treated levels | equally as effective as immediate delivery | reducing to sham-treated levels | promoted the same amount | at least 1000 μm | significantly enhanced percentage of CTB labelled axons | returning their concentrations to DMEM/F12-medium control levels | completely suppressed the production of these cytokines
